Where two headings read alike, the source gives them in different places.
Assays:
[1] = tested on: proteins conjugated to SUMO2/3 in CACO2 cells; assay: Immunoblot quantification of SUMO2/3-conjugated proteins (above 50 kDa) in CACO2 cells; type: cell-based; settings: for effect of ROS scavenger preincubation on BCFAs-induced hyperSUMOylation: 30 min pre-incubation with 5 mM NAC or 10 μM DPI, then 1h 5 mM isobutyric or isovaleric acid
Experimental: (§1) CACO2 and HeLa cells were cultivated in Minimum Essential Medium (MEM) (Eurobio) supplemented with 2 mM L-Glutamine (Invitrogen), 10% Fetal Bovine Serum (FBS, Eurobio), non-essential aminoacids (Sigma), 1 mM sodium pyruvate (Gibco) and a mixture of penicillin (10000 U/mL) and streptomycin (10 mg/mL). […] CACO2 and T84 cells were seeded in wells at a density of 1.1×10^5 cells/cm^2 and 1.7×10^5 cells/cm^2, respectively, the day before incubation with BCFAs or SCFAs.
(§2) Before treatments, cell culture medium was replaced by HBSS (Hanks' Balanced Salt Solution; Sigma). Cells were then treated as indicated in the text and directly lysed with Laemmli buffer. For BCFAs and SCFAs treatments, 100 mM stock solutions in water were first prepared from the corresponding acidic form (e.g. isobutyric acid) or from the sodium salt of the corresponding basic form (e.g. sodium isobutyrate) and then further diluted in cell culture media (HBSS). When needed, the pH of cell culture medium was set using either 0.1 M NaOH or 0.1 M HCl solution. […] For TNFα treatments, CACO2 cells were first incubated with BCFAs or SCFAs for 1 hour and then incubated with 100 ng/mL recombinant human TNFα (PeproTech). For immunoblotting and qRT-PCR analyses, cells were lysed after 30 min or 1h of incubation with TNFα, respectively. For Transepithelial electrical resistance (TEER) measurements, cells were incubated for 24 h with TNFα. Viability of cells incubated with HBSS at various pH or with BCFAs was assessed using the CellTiter-Glo® luminescent cell viability assay (Promega), according to the manufacturer's protocol.
(§3) Cell lysates and protein extracts from intestinal tissues in Laemmli buffer were boiled for 5 min, sonicated and protein content was resolved using SDS-polyacrylamide gel electrophoresis. Proteins were then transferred on PVDF membranes (GE Healthcare) and detected after incubation with specific antibodies using ECL Clarity Western blotting Substrate (BioRad). […] Quantifications of proteins were performed on a ChemiDoc Imaging System (Bio-rad). SUMO2/3-conjugated proteins levels (above 50 kDa), SUMO1-conjugated protein levels (above 50 kDa), and other specific protein levels were normalized either by the level of total proteins above 50 kDa (determined using the TGX-stain free imaging technology; Bio-rad) or by the level of actin in each lysate.

[2] = tested on: IκBα; assay: Immunoblot of IκBα levels in TNFα-stimulated CACO2 cells; type: cell-based; settings: 1 hour pre-incubation with 5 mM, then 30 min 100 ng/mL TNFα
Experimental: as §2, §3

[3] = tested on: CACO2 cells; assay: Luminol-based ROS detection assay in CACO2 cells; type: cell-based; settings: for ROS production: 1h of incubation; for level of ROS: 5h of incubation, compared with 1h
Experimental: Luminol was dissolved in NaOH 0.1 M to obtain a 50 mM stock solution. A stock solution of 1000 U/mL HRP (HorseRadish Peroxidase) was prepared in parallel in PBS (Phosphate-Buffered Saline). After treatment with BCFAs or SCFAs or incubation in HBSS at pH 5.2, CACO2 and HeLa culture media were collected and centrifugated for 5 min at 13,000×g at room temperature. The pH of these culture media was then buffered to 7.5 to avoid pH-dependent interferences with luminol activity. Luminol (1 mM final concentration) and HRP (4 U/mL) were finally added to each culture media and luminescence was quantified immediately on a luminometer (Tecan).

[4] = tested on: DSS-treated mice; assay: Fecal calprotectin in DSS mouse model of colitis; type: in vivo; settings: 2% DSS in drinking water 7 days, 150 mM in drinking water, 3 days after the end of DSS
Experimental: Eight-weeks-old C57Bl/6JRj male mice (Janvier Labs, Le-Genest-Saint-Isle, France) were housed at 23° C. (5 animals/cage) with a 12-h light-dark cycle in regular open cages. All animals were fed with a non-sterilized standard rodent diet (3430.PM.S10, Serlab, France). Drinking water was not sterilized. Animals were acclimatized to the animal facility for 1 week before experimentations. To monitor the effect of BCFAs on chemically-induced intestinal inflammation, animals were split in three groups (8 animals/group): one group had no treatment, one group was treated with DSS (Dextran Sulfate Sodium, MB Biomedicals, France; 2% in drinking water) from D4 to D11 to induce colitis and one group was treated both with sodium isobutyrate (150 mM in drinking water, pH 7.4; from DO to D13) and DSS (D4 to D11). Fecal pellets were weighted and resuspended in 600 μL of PBS with 1% protease and phosphatase inhibitors (Sigma-Aldrich, USA). After a centrifugation step (12000×g, 15 min, 4° C.), calprotectin was quantified in the obtained supernatants using the S100A8 DuoSet® kit (R&D Systems, Minneapolis), according to the manufacturer's protocol.

[5] = tested on: DSS-treated mice; assay: Colonic permeability (Lucifer yellow flux, Ussing chambers) in DSS mouse model of colitis; type: in vivo; settings: 2% DSS in drinking water 7 days, 150 mM in drinking water, three days after the end of DSS
Experimental: Eight-weeks-old C57Bl/6JRj male mice (Janvier Labs, Le-Genest-Saint-Isle, France) were housed at 23° C. (5 animals/cage) with a 12-h light-dark cycle in regular open cages. All animals were fed with a non-sterilized standard rodent diet (3430.PM.S10, Serlab, France). Drinking water was not sterilized. Animals were acclimatized to the animal facility for 1 week before experimentations. To monitor the effect of BCFAs on chemically-induced intestinal inflammation, animals were split in three groups (8 animals/group): one group had no treatment, one group was treated with DSS (Dextran Sulfate Sodium, MB Biomedicals, France; 2% in drinking water) from D4 to D11 to induce colitis and one group was treated both with sodium isobutyrate (150 mM in drinking water, pH 7.4; from DO to D13) and DSS (D4 to D11). Colon samples were cut along the mesenteric border. Colonic permeability was assessed by measuring Lucifer yellow (440 Da; Sigma-aldrich) fluxes in Ussing chambers with an exchange surface of 0.07 cm2 (Harvard Apparatus, Holliston, MA). Lucifer yellow (250 μg/ml) was added to the mucosal side. After 3 h at 37° C., medium from the serosal side was removed and the fluorescence level of Lucifer yellow (excitation: 428 nm; emission: 540 nm) was quantified.

[6] = pH and acid/base forms of BCFA in HBSS medium; type: physicochemical; settings: 5 mM added to HBSS medium
Experimental: as §2
BCFAs are weak organic acids, which exist in solution either as acidic (R—COOH) or basic (R—COO^−) forms.

[7] = tested on: proteins conjugated to SUMO2/3 in T84 cells; assay: Immunoblot of SUMO2/3-conjugated proteins in T84 cells; type: cell-based; settings: 5 mM, 1h of incubation
Experimental: as §1
Before treatments, cell culture medium was replaced by HBSS (Hanks' Balanced Salt Solution; Sigma). Cells were then treated as indicated in the text and directly lysed with Laemmli buffer. […] Viability of cells incubated with HBSS at various pH or with BCFAs was assessed using the CellTiter-Glo® luminescent cell viability assay (Promega), according to the manufacturer's protocol.
Cell lysates and protein extracts from intestinal tissues in Laemmli buffer were boiled for 5 min, sonicated and protein content was resolved using SDS-polyacrylamide gel electrophoresis. Proteins were then transferred on PVDF membranes (GE Healthcare) and detected after incubation with specific antibodies using ECL Clarity Western blotting Substrate (BioRad). […] Quantifications of proteins were performed on a ChemiDoc Imaging System (Bio-rad). […]

[8] = tested on: deSUMOylases; assay: DeSUMOylase activity assay (SUMO-AMC cleavage) in lysates of treated CACO2 and T84 cells; type: cell-based; settings: 5 mM for 5 h, cell lysates
Experimental: For in vitro cell lines, CACO2 and T84 cells grown in 12-well plates were scraped in 100 μL lysis buffer (Tris HCl pH 8.0 50 mM, EDTA 5 mM, NaCl 200 mM, Glycerol 10%, NP40 0.5%). For in vivo tissues, caecal segments were resuspended in lysis buffer (800 μL for 100 mg of tissues), mechanically lysed using bead beating and further diluted 25 times in lysis buffer. Negative controls were prepared by adding 10 mM N-ethymaleimide (NEM; Sigma-Aldrich) to cell lysates. Recombinant human SUMO1-AMC and SUMO2-AMC proteins (R&D Systems) were diluted in parallel to 500 nM in Assay buffer (Tris HCl pH 8.0 50 mM, Bovine Serum Albumin (BSA) 100 μg/mL, Dithiothreitol (DTT) 10 mM). For each measurement, 10 μL of cell or tissue lysates were mixed with 40 μL of SUMO-AMC containing Assay buffer and fluorescence (λEx=380 nm; λEm=460 nm) was recorded for 30 min at 37° C. on a Flexstation 3 microplate reader (Molecular Devices). DeSUMOylase activities were determined by calculating the initial rate of fluorescence emission in each lysate and by normalizing by the quantity of proteins in the corresponding sample, determined in parallel using BCA assays (Pierce™ BCA Protein Assay Kit).

[9] = tested on: cullin-1 neddylation in HeLa cells; assay: Cullin-1 neddylation in HeLa cells; type: cell-based; settings: 5h of incubation
Experimental: as §1, §3

[10] = tested on: T84 cells; assay: Intracellular pH (BCECF-AM) in T84 cells; settings: 5 mM
Experimental: CACO2 and T84 cells, grown in 96-well plates were loaded with 2 μM BCECF-AM (2′,7′-Bis-(2-Carboxyethyl)-5-(and-6)-Carboxyfluorescein, Acetoxymethyl Ester; Invitrogen) for 30 min in HBSS at 37° C. […] Cells were then washed twice and incubated in HBSS with or without BCFAs or with HBSS at definite pH. Cell fluorescence (λEmission535 nm) was recorded at two different excitation wavelengths: 440 nm and 490 nm. Comparison of the ratios of fluorescence intensities (490/440 nm) was performed to detect changes in intracellular pH. Calibration solutions (with pH ranging from 4.5 to 7.5) were used as controls (Intracellular pH Calibration Buffer Kit; Molecular Probes).

[11] = tested on: CCL20; assay: qRT-PCR of CCL20 mRNA in TNFα-stimulated CACO2 cells; type: cell-based; settings: 1 hour pre-treatment, then 1 hour 100 ng/mL TNFα
Experimental: as §2, with “For Transepithelial electrical resistance (TEER) measurements, cells were incubated for 24 h with TNFα.” left out
(§4) Total RNAs were extracted from CACO2 cells using the RNeasy Plus Mini kit (Qiagen) following manufacturer's instructions. […] Specific cDNAs were then quantified by qPCR using Itaq Universal SYBR Green Supermix (BioRad) on a Mastercycler ep Realplex system (Eppendorf, Hamburg, Germany). […]

[12] = tested on: SAE1/SAE2 or UBC9; assay: Immunoblot of E1 and E2 SUMO enzyme levels in CACO2 cells; type: cell-based
Experimental: as §3

[13] = tested on: CACO2 cells; assay: Transepithelial electrical resistance (TEER) of differentiated CACO2 monolayers with TNFα; type: cell-based; settings: differentiated CACO2 in Transwell, 1 hour pre-treatment, then 24 hours 100 ng/mL TNFα
Experimental: CACO2 cells were seeded in Transwell inserts and cultivated for 21 days. Monolayer formation and differentiation was monitored by daily evaluation of transepithelial electrical resistance (TEER) measurement, performed with an EVOM epithelial voltohm meter equipped with “chopstick” electrodes. After three weeks, cell culture media were replaced by HBSS. Cells were then preincubated or not with isobutyric or isovaleric acids for 1 hour. 100 ng/mL TNFα was then added to both apical and basolateral compartments. TEER was evaluated after 24h of incubation.

[14] = tested on: CACO2 cells; assay: Intracellular pH (BCECF-AM) in CACO2 cells; type: cell-based; settings: 5 mM
[15] = tested on: IL8; assay: qRT-PCR of IL8 mRNA in TNFα-stimulated CACO2 cells; type: cell-based; settings: 1 hour pre-treatment, then 1 hour 100 ng/mL TNFα
Experimental: as §2, with “For Transepithelial electrical resistance (TEER) measurements, cells were incubated for 24 h with TNFα.” left out
as §4

[16] = tested on: HeLa cells; settings: HeLa cells (Kumar et al., 2009); cited from earlier work
[17] = tested on: cullin-1 neddylation in HeLa cells; settings: HeLa cells (Kumar et al., 2007; Kumar et al., 2009); cited from earlier work
[18] = tested on: IEC-6 intestinal epithelial cells; settings: IEC-6 intestinal epithelial cells (Kumar et al., 2009); cited from earlier work
[19] = CACO2 cells, pH~7.5, 5 mM final concentration
[20] = CACO2 cells, 5h, pH~5.2, 5 mM final concentration

## c1ccc2c(c1)[I+]c1ccccc1-2 [DPI, Diphenyleneiodonium]
[1]; CACO2 cells
  effect of ROS scavenger preincubation on BCFAs-induced hyperSUMOylation: significantly block

## CCCC(=O)[O-].[Na+] [sodium butyrate, reference compound]
[2]
  TNFα-triggered degradation of IκBα: not observed
[1]; [19]
  SUMOylation pattern: does not trigger any changes
[3]
  ROS detection after incubation with sodium salts (basic forms): no ROS were detected

## CC(=O)N[C@@H](CS)C(=O)O [NAC, N-acetyl cysteine]
[1]; CACO2 cells
  effect of ROS scavenger preincubation on BCFAs-induced hyperSUMOylation: significantly block

## CCC(=O)O [propionic acid]
[1]; [20]
  level of SUMO2/3-conjugated proteins: significant increase

## CC(C)C(=O)[O-].[Na+] [sodium isobutyrate]
[2]
  TNFα-triggered degradation of IκBα: not observed
[4]
  level of fecal calprotectin: significantly decreases
[3]
  ROS detection after incubation with sodium salts (basic forms): no ROS were detected
[5]
  DSS-induced colonic hyperpermeability: significantly decreases
[6]
  concentration present as isobutyrate: ~4990 µM
  concentration present as isobutyric acid: ~10 µM
  pH of HBSS medium after addition: ~7.5
  proportion present as isobutyrate: ~99.8%
  proportion present as isobutyric acid: ~0.2%

## CC(C)C(=O)O [isobutyric acid]
[7]
  hyperSUMOylation (SUMO2/3-conjugated proteins): hyperSUMOylation is similarly observed
[8]
  initial rate of SUMO deconjugation, SUMO1-AMC substrate: significantly decrease
  initial rate of SUMO deconjugation, SUMO2-AMC substrate: significantly decrease
[9]
  cullin-1 neddylation: triggers cullin-1 deneddylation
[2]
  TNFα-triggered degradation of IκBα: block
[10]
  intracellular pH (pHi): significant decrease
[11]
  CCL20 mRNA expression in response to TNFα: downregulate
[1]; CACO2 cells, 5 mM, 1h or 5h of incubation
  level of proteins conjugated to SUMO2/3: significant increase
[3]
  ROS production: induce ROS production
  level of ROS: less important
[12]
  level of SAE1/SAE2 or UBC9: do not alter
[13]
  TNFα-induced increase in epithelial permeability (TEER): block
[14]
  intracellular pH (pHi): significant decrease
[15]
  IL8 mRNA expression in response to TNFα: downregulate
[6]
  concentration present as isobutyrate: ~3500 µM
  concentration present as isobutyric acid: ~1500 µM
  pH of HBSS medium after addition: ~5.2
  proportion present as isobutyrate: ~72%
  proportion present as isobutyric acid: ~28%

## CCCC(=O)O [butyric acid]
[2]
  TNFα-triggered degradation of IκBα: block
[16]
  ROS production: induce ROS
[1]; [20]
  level of SUMO2/3-conjugated proteins: significant increase
[17]
  cullin-1 neddylation: trigger the loss of cullin-1 neddylation
[3]
  ROS production: induce ROS production
  level of ROS: less important
[18]
  ROS production: induce ROS

## CCC(=O)[O-].[Na+] [sodium propionate]
[1]; [19]
  SUMOylation pattern: does not trigger any changes

## CC(=O)O [acetic acid]
[1]
  level of SUMO2/3-conjugated proteins: significant increase

## CC(=O)[O-].[Na+] [sodium acetate]
[1]
  SUMOylation pattern: does not trigger any changes

— patent publication US20250127743A1, “USE OF BRANCHED CHAIN FATTY ACIDS (BCFAS) FOR THE TREATMENT OF INTESTINAL INFLAMMATION” (priority 2021, published 2025)
